{"source": "patent US12582640B2", "about": "“Treatment of lower respiratory tract infection with tradipitant” (Vanda Pharmaceuticals Inc., priority 2020, dated 2026)", "system": "severe or critical COVID-19 infection", "assay": "Randomized, double-blind, placebo-controlled study of tradipitant in hospitalized patients with COVID-19 pneumonia (interim analysis, ITT population)", "assay_type": "in vivo, human", "design": "Mortality KM estimate: concentration or dose not given beside the values", "conditions": "for Mortality hazard ratio (95% CI) / Hazard ratio (95% CI), responder as improvement of 2 or more points / Odds ratio (95% CI), ordinal score at Day 7 / Odds ratio (95% CI), ordinal score at Day 28: tradipitant vs placebo; for Mortality hazard ratio (95% CI) / Hazard ratio (95% CI), responder as improvement of 2 or more points: Cox model; for Odds ratio (95% CI), ordinal score at Day 7 / Odds ratio (95% CI), ordinal score at Day 28: proportional odds model", "from_the_text": "A randomized, double-blind, placebo-controlled study investigates the efficacy of tradipitant in the treatment of inflammatory lung injury and pneumonia associated with severe or critical COVID-19 infection, and improvement of clinical outcomes associated with severe or critical COVID-19 infection. Such improvements in clinical outcomes include reduction in long term pulmonary function deficits and pulmonary fibrosis.\nMethods: Prospective participants attend a screening visit on study day −1 to 0 to assess the prospective patient's eligibility to participate. All enrolled patients are asked to undertake an initial physical examination and must satisfy inclusion and exclusion criteria before being enrolled into the study. A total sample size of 300 patients (150 per arm) provides approximately 93% power to detect a 20% difference of normalization in fever and oxygen saturation, assuming 50% and 70% normalization rates in placebo and tradipitant treatment groups respectively, based on a two-sided Fisher's Exact Test at a 5% significance level.\nInclusion criteria include: adults aged 18-90; confirmed laboratory COVID-19 infection by RT-PCR; confirmed pneumonia by chest radiograph or computed tomography; fever defined as temperature ≥36.6° C. armpit, ≥37.2° C. oral, or ≥37.8° C. rectal; and oxygen saturation of less than 92% on room air OR on mechanical ventilation OR increased work of breathing (WOB) on exam without respiratory support OR respiratory rate greater than 20 per minute. Exclusion criteria include: recent use of illicit drugs or alcohol abuse; known allergy to tradipitant or other neurokinin-1 antagonists; pregnancy; known HIV, HBV, or HCV infection; malignant tumor, other serious systemic diseases; and inability to provide informed consent or to have an authorized relative or designated person provide informed consent, or to comply with the protocol requirements.\nPatients who meet the inclusion-exclusion criteria are randomized 1:1 to treatment with either 85 mg tradipitant twice daily (bid) per os (PO, i.e. orally) or matching placebo under double-blind conditions, in addition to standard of care for COVID-19 infection according to protocol at the treating hospital. In both arms, treatment with study medication continues for 14 days or until discharge from the hospital. In both tradipitant treatment and placebo study arms, patients are given one capsule of study medication to be taken orally every day in the morning prior to or at 9:00 am and one capsule of study medication to be taken orally every day in the evening approximately 12 hours later (±1 hour). Patients in the tradipitant treatment arm receive capsules containing 85 mg tradipitant, as well as spray-dried lactose monohydrate, microcrystalline cellulose (Avicel PH102 and PH200), povidone, croscarmellose sodium, sodium lauryl sulfate, and magnesium stearate as excipients. The tradipitant capsules are white opaque, hard gelatin capsules. Placebo capsules are provided in size and appearance identical to those containing tradipitant.\nFor patients requiring administration via nasogastric tube, the following procedure is used: 1) empty contents of one 85 mg capsule in a glass mortar and grind using a pestle until all granules are thoroughly crushed; 2) add 10 mL of water while continuing to grind to obtain a uniform dispersion; 3) draw up entire dispersion into a suitable syringe; 4) connect syringe tip to nasogastric tube and push entire syringe contents; and 5) rinse mortar and pestle with 5 mL of water and repeat steps 3) and 4). The crushing procedure results in the preparation of a uniform dispersion in water, which can then be administered through a nasogastric tube without clogging.\nPatient assessments are performed in accordance with the schedule of evaluations detailed in Table 1 below.\nMortality is assessed as the proportion of participants with in-hospital mortality, and is evaluated per treatment arm. […]", "key": {"[1]": {"conditions": "Day 7, baseline ordinal score 3"}, "[2]": {"conditions": "Day 7, baseline ordinal score 4"}, "[3]": {"conditions": "Day 28, baseline ordinal score 2"}, "[4]": {"conditions": "Day 28, baseline ordinal score 3"}, "[5]": {"conditions": "Day 28, baseline ordinal score 4"}, "[6]": {"conditions": "ITT overall, >1 benefit for tradipitant"}, "[7]": {"conditions": "baseline ordinal score 2 (N = 4)"}, "[8]": {"conditions": "baseline ordinal score 3 (N = 13)"}, "[9]": {"conditions": "baseline ordinal score 4 (N = 9)"}, "[10]": {"conditions": "tradipitant arm, 85 mg bid PO plus standard of care, interim analysis"}}, "data": [{"molecule": "O=C(c1ccccc1Cl)c1cccnc1-c1nnn(Cc2cc(C(F)(F)F)cc(C(F)(F)F)c2)c1-c1ccncc1", "note": "[Tradipitant, {2-[1-(3,5-bistrifluoromethylbenzyl)-5-pyridin-4-yl-1H-[1,2,3]triazol-4-yl]-pyridin-3-yl}-(2-chlorophenyl)-methanone]", "values": [{"measurement": "Mortality KM estimate", "setting": "Day 7, ITT overall", "value": 9.8, "unit": "%"}, {"measurement": "No. of responders (improvement of 2 or more points)", "setting": "Day 7, ITT overall (N = 28)", "value": 13}, {"measurement": "Mortality hazard ratio (95% CI)", "setting": "Day 7, ITT overall, <1 benefit for tradipitant", "value": 2.65}, {"measurement": "Mortality KM estimate", "setting": "Day 7, baseline ordinal score 2", "value": 25.0, "unit": "%"}, {"measurement": "No. of responders (improvement of 2 or more points)", "setting": "Day 7, baseline ordinal score 2 (N = 4)", "value": 3}, {"measurement": "Mortality KM estimate", "setting": "[1]", "value": 0.0, "unit": "%"}, {"measurement": "No. of responders (improvement of 2 or more points)", "setting": "Day 7, baseline ordinal score 3 (N = 13)", "value": 2}, {"measurement": "Hazard ratio (95% CI), responder as improvement of 2 or more points", "setting": "[1]", "value": 2.19}, {"measurement": "Mortality KM estimate", "setting": "[2]", "value": 25.0, "unit": "%"}, {"measurement": "No. of responders (improvement of 2 or more points)", "setting": "Day 7, baseline ordinal score 4 (N = 9)", "value": 6}, {"measurement": "Hazard ratio (95% CI), responder as improvement of 2 or more points", "setting": "[2]", "value": 2.23}, {"measurement": "Mortality hazard ratio (95% CI)", "setting": "[2]", "value": 3.14}, {"measurement": "Mortality KM estimate", "setting": "Day 28, ITT overall", "value": 20.4, "unit": "%"}, {"measurement": "No. of responders (improvement of 2 or more points)", "setting": "Day 28, ITT overall (N = 28)", "value": 16}, {"measurement": "Mortality hazard ratio (95% CI)", "setting": "Day 28, ITT overall, <1 benefit for tradipitant", "value": 1.03}, {"measurement": "Mortality KM estimate", "setting": "[3]", "value": 50.0, "unit": "%"}, {"measurement": "No. of responders (improvement of 2 or more points)", "setting": "Day 28, baseline ordinal score 2 (N = 4)", "value": 3}, {"measurement": "Mortality hazard ratio (95% CI)", "setting": "[3]", "value": 1.84}, {"measurement": "Mortality KM estimate", "setting": "[4]", "value": 9.1, "unit": "%"}, {"measurement": "No. of responders (improvement of 2 or more points)", "setting": "Day 28, baseline ordinal score 3 (N = 13)", "value": 4}, {"measurement": "Hazard ratio (95% CI), responder as improvement of 2 or more points", "setting": "[4]", "value": 1.08}, {"measurement": "Mortality hazard ratio (95% CI)", "setting": "[4]", "value": 0.95}, {"measurement": "Mortality KM estimate", "setting": "[5]", "value": 25.0, "unit": "%"}, {"measurement": "No. of responders (improvement of 2 or more points)", "setting": "Day 28, baseline ordinal score 4 (N = 9)", "value": 7}, {"measurement": "Hazard ratio (95% CI), responder as improvement of 2 or more points", "setting": "[5]", "value": 1.59}, {"measurement": "Mortality hazard ratio (95% CI)", "setting": "[5]", "value": 1.24}, {"measurement": "Median time to responder (95% CI)", "setting": "Day 28 analysis, ITT overall (N = 28), listed as tradipitant", "value": 10, "unit": "days"}, {"measurement": "No. of deaths by day 7", "setting": "ITT overall (N = 28)", "value": 2}, {"measurement": "No. of deaths by day 28", "setting": "ITT overall (N = 28)", "value": 4}, {"measurement": "Odds ratio (95% CI), ordinal score at Day 7", "setting": "[6]", "value": 1.05}, {"measurement": "Odds ratio (95% CI), ordinal score at Day 28", "setting": "[6]", "value": 1.01}, {"measurement": "No. of deaths by day 7", "setting": "[7]", "value": 1}, {"measurement": "No. of deaths by day 28", "setting": "[7]", "value": 2}, {"measurement": "Odds ratio (95% CI), ordinal score at Day 7", "setting": "baseline ordinal score 2", "value": 0.43}, {"measurement": "Odds ratio (95% CI), ordinal score at Day 28", "setting": "baseline ordinal score 2", "value": 0.43}, {"measurement": "No. of deaths by day 7", "setting": "[8]", "value": 0}, {"measurement": "No. of deaths by day 28", "setting": "[8]", "value": 1}, {"measurement": "Odds ratio (95% CI), ordinal score at Day 7", "setting": "baseline ordinal score 3", "value": 2.69}, {"measurement": "Odds ratio (95% CI), ordinal score at Day 28", "setting": "baseline ordinal score 3", "value": 2.21}, {"measurement": "No. of deaths by day 7", "setting": "[9]", "value": 1}, {"measurement": "No. of deaths by day 28", "setting": "[9]", "value": 1}, {"measurement": "Odds ratio (95% CI), ordinal score at Day 7", "setting": "baseline ordinal score 4", "value": 0.40}, {"measurement": "Odds ratio (95% CI), ordinal score at Day 28", "setting": "baseline ordinal score 4", "value": 0.62}, {"measurement": "mortality rate", "setting": "[10]", "value": 14.2, "unit": "%"}, {"measurement": "patients showing clinical improvement (at least a 2 point improvement in the 7 point ordinal scale)", "setting": "[10]", "value": 57, "unit": "%"}]}]}
